# Earlier results in patent US20200170998A1, “UMBILICAL CORD BLOOD SERUM AND UMBILICAL CORD BLOOD PLASMA PREPARATION IN COMBINATION WITH A NONSTEROIDAL ANTI-INFLAMMATORY DRUG AND FREEZE-DRYING THE COMPOSITION” (CELLULA LLC, priority 2018, published 2020).
# Tested on: corneal epithelial cells
# Details: in-vitro; control a balanced salt solution
row,Compound,toxicity on corneal epithelial cells
1,O=C(O)Cc1ccccc1Nc1c(Cl)cccc1Cl [Diclofenac],significant cellular toxicity
2,CC(C(=O)O)c1ccc2c(c1)Cc1cccnc1O2 (stereo not shown) [pranoprofen],less cellular damage and showed no difference with the control
3,CC(=O)[C@@]1(O)CC[C@H]2[C@@H]3C[C@H](C)C4=CC(=O)C=C[C@]4(C)[C@@]3(F)[C@@H](O)C[C@@]21C [Flourometholone],most severe toxicity
4,Nc1c(CC(=O)O)cccc1C(=O)c1ccc(Br)cc1 [bromfenac],less cellular damage and showed no difference with the control
